Experimental data: the SangsterLogP compilation

Assay: method code SF, from Recanatgini, M.; Leoni, A.; Baraldi, G. (1991). Partition coefficients of 3-methyl-4-nitropyrazole-5-carboxamides. 16, 127-130.
Settings: not given
Molecule Cc1ccc(NC(=O)c2[nH]nc(C)c2[N+](=O)[O-])cc1 has a logP of 2.34.

Same assay, conditions: pH 1.0
For Cc1[nH]nc(C(=O)NC2CC2)c1[N+](=O)[O-], the logD was 0.25.
In the case of Cc1n[nH]c(C(=O)N2CCCCCC2)c1[N+](=O)[O-], the logD is reported as 1.15.
In the case of CCCCCCCCCCNC(=O)c1[nH]nc(C)c1[N+](=O)[O-], the logD is reported as 4.48.
For CCCNC(=O)c1[nH]nc(C)c1[N+](=O)[O-], the logD was 0.65.
In the case of Cc1n[nH]c(C(=O)N(C)C2CCCCC2)c1[N+](=O)[O-], the logD is reported as 1.68.
Cc1[nH]nc(C(=O)N2CCCCC2)c1[N+](=O)[O-] gave a logD of 0.79.
Molecule Cc1n[nH]c(C(=O)NC2CCCC2)c1[N+](=O)[O-] has a logD of 1.24.
Cc1n[nH]c(C(=O)NC23CC4CC(CC(C4)C2)C3)c1[N+](=O)[O-] gave a logD of 2.83.
With Cc1n[nH]c(C(=O)NC2CCCCC2)c1[N+](=O)[O-] the logD was 1.71.
Cc1n[nH]c(C(=O)NCc2ccccc2)c1[N+](=O)[O-] gave a logD of 1.49.
Molecule CCNC(=O)c1n[nH]c(C)c1[N+](=O)[O-] has a logD of 0.13.
In the case of Cc1n[nH]c(C(N)=O)c1[N+](=O)[O-], the logD is reported as -0.38.
For CNC(=O)c1n[nH]c(C)c1[N+](=O)[O-], the logD was -0.23.
Cc1n[nH]c(C(=O)NCCc2ccccc2)c1[N+](=O)[O-] showed a logD of 1.82.
Work on Cc1n[nH]c(C(=O)Nc2ccccc2)c1[N+](=O)[O-] yielded a logD of 1.81.
Work on Cc1n[nH]c(C(=O)N2CCCC2)c1[N+](=O)[O-] yielded a logD of 0.25.
CCCCNC(=O)c1[nH]nc(C)c1[N+](=O)[O-] showed a logD of 1.27.
Cc1n[nH]c(C(=O)N(C)Cc2ccccc2)c1[N+](=O)[O-] gave a logD of 1.65.
For CCCCCCCCNC(=O)c1[nH]nc(C)c1[N+](=O)[O-], the logD was 3.48.
CCCCCCNC(=O)c1[nH]nc(C)c1[N+](=O)[O-] showed a logD of 2.46.
